Laboratory results reported in patent US10098878B2, “HIF-2α inhibitors for treating iron overload disorders” (The Board of Regents of the University of Texas System, priority 2014, dated 2018).
Like-named read-outs stand apart in the source and are kept apart here.

What was measured:
[1] = biological target: T1, HIF-2α HIS TAG-PASB Domain (Homo sapiens, UniProt Q99814); experiment: HIF-2α Scintillation Proximity Assay (SPA); format: binding; details: 150 nM Compound 211 probe, 100 nM HIF-2α HIS TAG-PASB Domain; read-out: SPA IC50
T1 construct: 100 nM HIF-2α HIS TAG-PASB Domain
T1 sequence (Q99814 240-350 limits assumed): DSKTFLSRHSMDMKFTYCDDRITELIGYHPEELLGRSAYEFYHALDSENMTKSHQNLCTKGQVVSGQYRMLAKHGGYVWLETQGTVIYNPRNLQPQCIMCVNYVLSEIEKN
Protocol: The total assay volume was about 100 μL in the following configuration: 2 μL compound in 100% DMSO, 88 μL buffer with protein and probe and 10 μL of SPA beads. […] The percent inhibition was determined and IC50 values were calculated using the Dotmatics system based on the following equation: % inhibition=[(high control−sample)/(high control−low control)]×100.

786-O-Hif-Luc cells = experiment: Luciferase Assay; format: cell-based; details: read-out: Luciferase EC50
Protocol: A pool of infected cells were then selected against 2 μg/mL of puromycin (P8833, Sigma) for 10 days followed by limited dilution to select single clones.
Each concentration was tested in triplicate. After about 24 hours, luciferase activity was determined using ONE-Glo Luciferase Assay Reagent (E6110, Promega) following the manufacturer's recommended procedure. EC50 were calculated by using Dotmatics software.

[2] = 24 h, 786-O-Hif-Luc cells, about 24 hours
[3] = 786-O-Hif-Luc cells, about 24 hours

IC50 [1] [nM] | EC50 (786-O-Hif-Luc cells; [2]) [nM] | EC50 (786-O-Hif-Luc cells; [3]) [nM] | EC50 (786-O-Hif-Luc cells) [nM] | SMILES | EC50 (786-O-Hif-Luc cells; 24 h) [nM]
63 | 115 |  |  | CS(=O)(=NC#N)c1ccc(Oc2cc(F)cc(C#N)c2)c2c1[C@H](O)[C@H](F)C2 (mixture of isomers) [Compound 66, N-(((2R,3S)-7-(3-cyano-5-fluorophenoxy)-2-fluoro-3-hydroxy-2,3-dihydro-1H-inden-4-yl)(methyl)(oxo)-λ^6-sulfanylidene)cyanamide] | 
5100 | 5900 |  |  | N#Cc1cc(F)cc(Oc2ccc(S(=O)(=O)C(F)(F)F)c3c2[C@@H](N)C[C@H]3O)c1 (relative stereo) [Compound 43, 3-((cis-3-amino-1-hydroxy-7-((trifluoromethyl)sulfonyl)-2,3-dihydro-1H-inden-4-yl)oxy)-5-fluorobenzonitrile] | 
90 | 897 |  |  | N#Cc1cc(F)cc(Oc2ccc(S(=O)(=O)C(F)(F)F)c3c2CC(F)C3N)c1 (single isomer, unassigned) [Compound 29, 3-((1-amino-2-fluoro-7-((trifluoromethyl)sulfonyl)-2,3-dihydro-1H-inden-4-yl)oxy)-5-fluorobenzonitrile] | 
76 |  | 255 |  | N#Cc1cc(F)cc(Oc2ccc(S(=N)(=O)CF)c3c2CC(F)(F)[C@H]3O)c1 (single isomer, unassigned) [Compound 39] | 
58 |  | 153 |  | N#CN=S(=O)(CF)c1ccc(Oc2cc(F)cc(C#N)c2)c2c1[C@H](O)[C@H](F)C2 (single isomer, unassigned) [Compound 40] | 
71 | 100 |  |  | N#CN=S(=O)(CF)c1ccc(Oc2cc(F)cc(C#N)c2)c2c1[C@H](O)C(F)(F)C2 (single isomer, unassigned) [Compound 49] | 
370 |  | 1670 |  | C=CCN=S(=O)(c1ccc(Oc2cc(F)cc(C#N)c2)c2c1[C@H](O)C(F)(F)C2)C(F)(F)F (single isomer, unassigned) [Compound 71] | 
4100 | 544 |  |  | N=S1(=O)c2ccc(Oc3cc(F)cc(F)c3)c(Br)c2C(O)C1(F)F (single isomer, unassigned) [Compound 141, 4-Bromo-5-(3,5-difluorophenoxy)-2,2-difluoro-3-hydroxy-1-imino-2,3-dihydro-1H-1λ^4-benzo[b]thiophene 1-oxide] | 
239 |  | 286 |  | N=S1(=O)c2ccc(Oc3cc(F)cc(F)c3)c(Br)c2C(O)C1(F)F (single isomer, unassigned) [Compound 142, 4-bromo-5-(3,5-difluorophenoxy)-2,2-difluoro-3-hydroxy-1-imino-2,3-dihydro-1H-1λ^4-benzo[b]thiophene 1-oxide] | 
177 | 277 |  |  | CS(=N)(=O)c1ccc(Oc2cc(F)cc(F)c2)c2c1[C@H](O)C(F)(F)C2 (stereo partly drawn) [Compound 10, ((S)-7-(3,5-Difluorophenoxy)-2,2-difluoro-3-hydroxy-2,3-dihydro-1H-inden-4-yl)(imino)(methyl)-λ^6-sulfanone] | 
< 5 | 13500 |  |  | Cc1cncc(Oc2ccc(S(C)(=O)=O)c3c2CC(F)(F)[C@H]3O)n1 [Compound 11, (S)-2,2-Difluoro-4-((6-methylpyrazin-2-yl)oxy)-7-(methylsulfonyl)-2,3-dihydro-1H-inden-1-ol] | 
800 | 775 |  |  | Cc1cc(Oc2cc(F)cc(C#N)c2)c2c(c1S(C)(=O)=O)C(O)C(F)(F)C2 (stereo not shown) [Compound 12, 3-((2,2-Difluoro-1-hydroxy-6-methyl-7-(methylsulfonyl)-2,3-dihydro-1H-inden-4-yl)oxy)-5-fluorobenzonitrile] | 
230 | 512 |  |  | O=S(=O)(CF)c1ccc(Oc2cccc3sccc23)c2c1C(O)C(F)(F)C2 (stereo not shown) [Compound 22, 4-(Benzo[b]thiophen-4-yloxy)-2,2-difluoro-7-((fluoromethyl)sulfonyl)-2,3-dihydro-1H-inden-1-ol] | 
17600 | 1100 |  |  | N#Cc1cncc(Oc2ccc(S(N)(=O)=O)c3c2CC(F)(F)[C@H]3O)c1 [Compound 25, (S)-7-((5-Cyanopyridin-3-yl)oxy)-2,2-difluoro-3-hydroxy-2,3-dihydro-1H-indene-4-sulfonamide] | 
66 | 173 |  |  | O=S(=O)(c1ccc(Oc2cc(Cl)c[n+]([O-])c2)c2c1[C@H](O)C(F)(F)C2)C(F)(F)F [Compound 28, (S)-3-Chloro-5-((2,2-difluoro-1-hydroxy-7-((trifluoromethyl)sulfonyl)-2,3-dihydro-1H-inden-4-yl)oxy)pyridine 1-oxide] | 
3510 | 2450 |  |  | N#Cc1cc(F)cc(Oc2ccc(S(=O)(=O)C(F)(F)F)c3c2CC(F)C3N)c1 (stereo not shown) [Compound 32, 3-((1-amino-2-fluoro-7-((trifluoromethyl)sulfonyl)-2,3-dihydro-1H-inden-4-yl)oxy)-5-fluorobenzonitrile] | 
310 | 19400 |  |  | CS(=O)(=O)c1ccc(Oc2cc(F)cc(C#N)c2)c2c1C(=O)C(F)(Cl)C2 (stereo not shown) [Compound 33, 3-((2-chloro-2-fluoro-7-(methylsulfonyl)-1-oxo-2,3-dihydro-1H-inden-4-yl)oxy)-5-fluorobenzonitrile] | 
97 | 100 |  |  | CS(=O)(=O)c1ccc(Oc2cc(F)cc(C#N)c2)c2c1[C@H](O)C(F)(Cl)C2 (stereo partly drawn) [Compound 34, 3-(((1S)-2-chloro-2-fluoro-1-hydroxy-7-(methylsulfonyl)-2,3-dihydro-1H-inden-4-yl)oxy)-5-fluorobenzonitrile] | 
2000 | 2280 |  |  | C[S+]([O-])c1ccc(Oc2cc(F)cc(C#N)c2)c2c1[C@H](O)C(F)(F)C2 (stereo partly drawn) [Compound 36, 3-[(1S)-2,2-Difluoro-1-hydroxy-7-methylsulfinyl-indan-4-yl]oxy-5-fluoro-benzonitrile] | 
4900 | 3100 |  |  | N#Cc1cc(F)cc(Oc2ccc(S(=O)(=O)C(F)(F)F)c3c2CC(F)(F)[C@H]3NCCO)c1 [Compound 55, 3-[(1S)-2,2-difluoro-1-(2-hydroxyethylamino)-7-(trifluoromethylsulfonyl)indan-4-yl]oxy-5-fluoro-benzonitrile] | 
230 | 390 |  |  | CS(=O)(=O)c1ccc(Oc2cc(F)cc(C#N)c2)c2c1[C@H](O)C[C@@H]2F [Compound 59, 3-fluoro-5-[(1R,3S)-3-fluoro-1-hydroxy-7-methylsulfonyl-indan-4-yl]oxy-benzonitrile] | 
1340 | 1320 |  |  | CS(=O)(=O)c1ccc(Oc2cc(F)cc(C#N)c2)c2c1[C@H](O)[C@H](F)[C@@H]2O [Compound 60, 3-fluoro-5-[(1S,2R,3R)-2-fluoro-1,3-dihydroxy-7-methylsulfonyl-indan-4-yl]oxy-benzonitrile] | 
2030 | 2830 |  |  | C[C@@]1(F)Cc2c(Oc3cc(F)cc(C#N)c3)ccc(S(C)(=O)=O)c2[C@@H]1O [Compound 64, 3-fluoro-5-(((1S,2R)-2-fluoro-1-hydroxy-2-methyl-7-(methylsulfonyl)-2,3-dihydro-1H-inden-4-yl)oxy)benzonitrile] | 
 | 67 |  |  | N#Cc1cc(F)cc(Oc2ccc(S(N)(=O)=O)c3c2[C@@H](F)[C@@H](F)[C@H]3O)c1 [Compound 100, (1R,2S,3S)-7-(3-cyano-5-fluoro-phenoxy)-1,2-difluoro-3-hydroxy-indane-4-sulfonamide] | 
 |  |  |  | N#Cc1cc(F)cc(Oc2ccc(S(N)(=O)=O)c3c2[C@H](F)C(F)(F)[C@H]3O)c1 [Compound 103, (1S,3S)-7-(3-cyano-5-fluoro-phenoxy)-1,2,2-trifluoro-3-hydroxy-indane-4-sulfonamide] | 253
 |  |  | 4800 | O=S1(=O)CC(O)c2c1ccc(Oc1cc(F)cc(Cl)c1)c2Br (stereo not shown) [Compound 116, 4-Bromo-5-(3-chloro-5-fluorophenoxy)-3-hydroxy-2,3-dihydrobenzo[b]thiophene 1,1-dioxide] | 
 | 124 |  |  | O=S1(=O)c2ccc(Oc3cc(F)cc(F)c3)c(C(F)F)c2C(O)C1F (stereo not shown) [Compound 133, 4-(difluoromethyl)-5-(3,5-difluorophenoxy)-2-fluoro-3-hydroxy-2,3-dihydrobenzo[b]thiophene 1,1-dioxide] | 
 |  |  | 12 | [2H]C1(O)c2c(ccc(Oc3cc(F)cc(C#N)c3)c2C(F)F)S(=O)(=O)C1(F)F (stereo not shown) [Compound 150, 3-((4-(Difluoromethyl)-2,2-difluoro-3-hydroxy-1,1-dioxido-2,3-dihydrobenzo[b]thiophen-5-yl-3-d)oxy)-5-fluorobenzonitrile] | 

SMILES | IC50 [1] [nM] | EC50 (786-O-Hif-Luc cells; [2]) [nM] | EC50 (786-O-Hif-Luc cells; [3]) [nM] | EC50 (786-O-Hif-Luc cells) [nM] | EC50 (786-O-Hif-Luc cells; 24 h) [nM]
CS(=O)(=O)c1ccc(Oc2cc(F)cc(C#N)c2)c2c1[C@H](O)C(F)(F)[C@H]2F [Compound 57, 3-fluoro-5-[(1S,3S)-2,2,3-trifluoro-1-hydroxy-7-methylsulfonyl-indan-4-yl]oxy-benzonitrile] | 720 |  |  |  | 779
N#Cc1cc(F)cc(Oc2ccc3c(c2C(F)F)C(O)C(F)(F)S3(=O)=O)c1 (stereo not shown) [Compound 139, 3-((4-(Difluoromethyl)-2,2-difluoro-3-hydroxy-1,1-dioxido-2,3-dihydrobenzo[b]thiophen-5-yl)oxy)-5-fluorobenzonitrile] |  |  | 4 |  | 
[2H][C@@]1(O)c2c(ccc(Oc3cc(F)cc(C#N)c3)c2C(F)F)S(=O)(=O)C1(F)F [Compound 153, (R)-3-((4-(Difluoromethyl)-2,2-difluoro-3-hydroxy-1,1-dioxido-2,3-dihydrobenzo[b]thiophen-5-yl-3-d)oxy)-5-fluorobenzonitrile] |  |  | 6 |  | 
